In patent publication US10005750B2, “Developing potent urate transporter inhibitors: compounds designed for their uricosuric action” (priority 2010, dated 2018):

Legend:
hURAT1 [1] = target: T1, hURAT1 (Homo sapiens, UniProt Q96S37); assay: [14C]urate uptake inhibition in Xenopus oocytes expressing hURAT1; type: cell-based; design: expressed in transfected cells; host or cells: Xenopus laevis oocytes injected with capped cRNA; conditions: 60 min; for IC50: 14C-uric acid uptake; for 14C-urate transport inhibition: test compound at 50 μM
T1 sequence (Q96S37 1-553): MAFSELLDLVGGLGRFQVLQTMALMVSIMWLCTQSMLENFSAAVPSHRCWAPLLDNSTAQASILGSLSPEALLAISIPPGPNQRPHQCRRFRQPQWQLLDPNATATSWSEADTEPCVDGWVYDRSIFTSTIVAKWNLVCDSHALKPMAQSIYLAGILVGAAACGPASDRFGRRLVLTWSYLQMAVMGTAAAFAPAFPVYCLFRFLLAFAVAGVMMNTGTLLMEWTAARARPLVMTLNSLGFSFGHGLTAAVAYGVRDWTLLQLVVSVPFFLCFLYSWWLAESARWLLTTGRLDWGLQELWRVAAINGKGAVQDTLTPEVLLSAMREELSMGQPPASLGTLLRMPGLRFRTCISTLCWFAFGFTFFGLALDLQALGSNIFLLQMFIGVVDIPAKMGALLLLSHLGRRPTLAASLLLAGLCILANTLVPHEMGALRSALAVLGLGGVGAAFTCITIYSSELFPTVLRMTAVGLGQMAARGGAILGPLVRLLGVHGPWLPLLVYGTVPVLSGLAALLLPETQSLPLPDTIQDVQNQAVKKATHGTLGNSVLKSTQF
Protocol: cRNA synthesis and oocyte injection. The hURATv1 (pCMV6-XL5) plasmids were linearized with XbaI and hURAT2 (pCMV-SPORT6) plasmids were linearized with XhoI. The cRNAs were synthesized in vitro with T7 RNA polymerase (for hURATv1) or SP6 RNA polymerase (for hURAT2) using mMessage mMachine® High yield capped RNA transcription kit (Ambion, Austin, Tex., USA). The polyadenylation of cRNA at 3′-end was performed using poly(A) tailing kit (Ambion, Austin, Tex., USA). Female Xenopus frogs (African clawed frogs; 95-120 g) were purchased from Sato Zoushoku (Chiba, Japan) and nurtured in tap water (19±3° C.). […] The oocytes were washed in Ca^2+-free solution and transferred to ND96 solution (96.0 mM NaCl, 2.0 mM KCl, 1.0 mM CaCl2, 1.0 mM MgCl2.6H2O and 5.0 mM HEPES, pH 7.5). Defolliculated Xenopus oocytes (stage 1V and V) were injected with 25 ng of capped cRNA and incubated at 18° C. for 2-3 days in ND96 solution containing gentamicin (50 μg/ml) and 2.5 mM sodium pyruvate.
Inhibition study. After incubation of cRNA-injected oocytes (2-3 days), uptake experiments were performed at room temperature in ND96 solution. […] The uptake was terminated by washing the oocytes with ice-cold uptake solution (5 times @ 1.0 ml each) after 60 min of incubation. The oocytes were solubilized with 5% (w/v) SDS and the radioactivity content determined using liquid scintillation counter (Aloka 3100; Aloka Co., Ltd. Tokyo, Japan). The urate uptake by non-injected (control) oocytes was subtracted from oocytes expressing hURAT1, hURATv1 or hURAT2. The data are presented and reported as the % inhibition. The IC50 data were conducted using different compound concentrations.
We conducted a general screen where ^14C-uric acid ([…]) and test compound (50 μM) were placed in the extracellular fluid. Radioactivity inside the oocyte was analyzed after 60 min. […] The IC50 values were generated using a sigmoidal dose-response (variable slope) relationship.

hURAT1 [2] = target: T1, hURAT1; design: expressed in transfected cells; host or cells: Xenopus laevis oocytes injected with capped cRNA; conditions: previous results of the applicants' laboratories; cited from earlier work
[3] = oral; 7 (100 mg/kg) versus 4 (300 mg/day) or 5 (1000 mg/day); cited from earlier work
[4] = tested on: hURAT1, hURAT2, and hURATv1; assay: combined % inhibition of urate transport in oocytes expressing hURAT1, hURAT2 or hURATv1; type: cell-based, human; conditions: sum over the three transporters
Protocol: cRNA synthesis and oocyte injection. The hURATv1 (pCMV6-XL5) plasmids were linearized with XbaI and hURAT2 (pCMV-SPORT6) plasmids were linearized with XhoI. The cRNAs were synthesized in vitro with T7 RNA polymerase (for hURATv1) or SP6 RNA polymerase (for hURAT2) using mMessage mMachine® High yield capped RNA transcription kit (Ambion, Austin, Tex., USA). The polyadenylation of cRNA at 3′-end was performed using poly(A) tailing kit (Ambion, Austin, Tex., USA). Female Xenopus frogs (African clawed frogs; 95-120 g) were purchased from Sato Zoushoku (Chiba, Japan) and nurtured in tap water (19±3° C.). Oocytes (1.23±0.10 mg/oocyte) isolated from Xenopus laevis were defolliculated with 1.0 mg/ml collagenase in Ca^2+-free solution (96.0 mM NaCl, 2.0 mM KCl, 1.0 mM MgCl2.6H2O and 5.0 mM HEPES, pH 7.5) at 25+2° C. for 2.0 h. The oocytes were washed in Ca^2+-free solution and transferred to ND96 solution (96.0 mM NaCl, 2.0 mM KCl, 1.0 mM CaCl2, 1.0 mM MgCl2.6H2O and 5.0 mM HEPES, pH 7.5). Defolliculated Xenopus oocytes (stage 1V and V) were injected with 25 ng of capped cRNA and incubated at 18° C. for 2-3 days in ND96 solution containing gentamicin (50 μg/ml) and 2.5 mM sodium pyruvate.
Inhibition study. […] The oocytes were solubilized with 5% (w/v) SDS and the radioactivity content determined using liquid scintillation counter (Aloka 3100; Aloka Co., Ltd. Tokyo, Japan). […]

hURAT1 [5] = target: T1, hURAT1; assay: MDCK-hURAT1 data (Endou and Olkawa, 2009); type: cell-based; design: expressed in transfected cells; conditions: 8 versus 7, MDCK-hURAT1 data

CCc1cc2cc(OC)cc(C(=O)c3cc(Br)c(O)c(Br)c3)c2o1 [Compound 43]
IC50 (hURAT1 [1]): 1440 nM

CCc1oc2cc(O)ccc2c1C(=O)c1ccc(OC)cc1 [Compound 31, (2-Ethyl-6-hydroxybenzofuran-3-yl)(4-methoxyphenyl)methanone]
IC50 (hURAT1 [1]): > 50000 nM

CCc1oc2ccccc2c1C(=O)c1cc(Br)c(O)c(Br)c1 [Compound 7, (3,5-Dibromo-4-hydroxyphenyl)(2-ethylbenzofuran-3-yl)methanone]
hURAT1 inhibitor properties (hURAT1 [2]): potent
physiological effect (lowers urate level) [3]: greater physiological effect

CCc1oc2ccc(OC)cc2c1C(=O)c1ccc(OC)cc1 [Compound 14, (2-Ethyl-5-methoxybenzofuran-3-yl)(4-methoxyphenyl)methanone]
14C-urate transport inhibition (hURAT1 [1]): weak inhibition

CCc1oc2cc(O)ccc2c1C(=O)c1ccc(O)cc1 [Compound 32, (2-ethyl-6-hydroxybenzofuran-3-yl)(4-hydroxyphenyl)methanone]
IC50 (hURAT1 [1]): 1100 nM

CCc1oc2c(OC)cccc2c1C(=O)c1ccc(OC)cc1 [Compound 19, (2-Ethyl-7-methoxybenzofuran-3-yl)(4-methoxyphenyl)methanone]
14C-urate transport inhibition (hURAT1 [1]): weak inhibition

CCc1oc2ccccc2c1C(=O)c1cc(Br)c(OC)c(Br)c1 [Compound 85, (3,5-Dibromo-4-methoxyphenyl)(2-ethylbenzofuran-3-yl)methanone]
combined % inhibition for hURAT1, hURAT2, and hURATv1 [4]: < 160%

CCc1oc2cc(OC)ccc2c1C(=O)c1ccc(O)cc1 [Compound 30, (2-Ethyl-6-methoxybenzofuran-3-yl)(4-hydroxyphenyl)methanone]
IC50 (hURAT1 [1]): 3900 nM

CCc1oc2ccccc2c1C(=O)c1ccc(O)cc1 [Compound 13, (2-Ethylbenzofuran-3-yl)(4-hydroxyphenyl)methanone, reference compound]
IC50 (hURAT1 [1]): 2800 nM

CCc1oc2cc(O)ccc2c1C(=O)c1cc(Br)c(O)c(Br)c1 [Compound 8, (3,5-dibromo-4-hydroxyphenyl)(2-ethyl-6-hydroxy-benzofuran-3-yl)methanone]
IC50 (hURAT1 [1]): 138 nM
hURAT1 inhibitor properties (hURAT1 [2]): potent
fold difference (hURAT1 [5]): 5.7 fold

CCc1cc2cc(O)cc(C(=O)c3cc(Br)c(O)c(Br)c3)c2o1 [Compound 44, (3,5-Dibromo-4-hydroxyphenyl)(2-ethyl-5-hydroxybenzofuran-7-yl)methanone]
IC50 (hURAT1 [1]): 287 nM

CCc1oc2ccccc2c1C(=O)c1ccc(OC)cc1 [Compound 12, (2-Ethylbenzofuran-3-yl)(4-methoxyphenyl)methanone]
14C-urate transport inhibition (hURAT1 [1]): weak-to-no
